“Also recorded” adds a separate entry of the source. Like-named read-outs stand apart in the source and are kept apart here. Each block holds one compound with its values, some of them ahead of it.
Experiments:
[1] = in words; cited from earlier work
histamine H2-receptors = target: T1, histamine H2-receptors (Cavia porcellus, UniProt P47747); test: Histamine H2-receptor antagonism, isolated guinea pig right atria assay; assay type: cell-based; conditions: for Histamine ED50 With 95% Confidence Limits: histamine ED50 in presence of test compound 1 × 10^-5 M, 30 min incubation; for Concentration-Response Curve Displacement Factor: test compound 1 × 10^-5 M
T1 construct: The spontaneously beating right atrium was dissected free from other tissues; from tissue; host or cells: isolated spontaneously beating right atrium of male Hartley guinea pigs
Protocol: Subsequent investigations by Hughes and Coret, Proc. Soc. […] Black et al., Agents and Actions, 3, 133 (1973) and Brimblecombe et al., Fed. […] The present comparative studies were carried out using a modification of the procedure reported by Reinhardt et al., Agents and Actions, 4, 217 (1974).
Male Hartley strain guinea pigs (350-450 gm.) were sacrificed by a blow on the head. The heart was excised and placed in a Petri dish of oxygenated (95% O2, 5% CO2) modified Krebs solution (g./liter: NaCl 6.6, KCl 0.35, MgSO4.7 H2 O 0.295, KH2 PO4 0.162, CaCl2 0.238, NaHCO3 2.1 and dextrose 2.09). The spontaneously beating right atrium was dissected free from other tissues and a silk thread (4-0) attached to each end. The atrium was suspended in a 20 ml. muscle chamber containing oxygenated modified Krebs solution maintained at 32° C. Atrial contractions were recorded isometrically by means of a Grass FT 0.03 force displacement transducer and recordings of contractile force and rate were made with a Beckman RP Dynograph.
A resting tension of 1 g. was applied to the atrium and it was allowed to equilibrate for 1 hour.
Concentration-response curve displacement factors were calculated as follows: [formula] The factor obtained for BL-5641 was then expressed as a ratio of the factor obtained for cimetidine. [formula]

peptic ulcer disease = conditions: clinical evaluation, in words; cited from earlier work
H2 receptors = conditions: in words; cited from earlier work
gastric acid output = test: Gastric antisecretory activity in the two hour pylorus ligated (Shay) rat; assay type: in vivo, rat (male Long Evans)
Excerpt: Determination of Gastric Antisecretory Activity in the Two Hour Pylorus Ligated (Shay) Rat
The pyloric ligation procedure in the rat was designed by Shay et al., Gastroenterology, 5,53 (1945) for the study of perforating gastric ulcers; however, as the method became known, it was also employed as a means of studying rat gastric secretion, Shay et al., Gastroenterology, 26, 906 (1954), Brodie, D. A., Am. J. Dig. Dis., 11, 231 (1966). A modification of this procedure is presently used to evaluate compounds for gastric antisecretory activity.
Male Long Evans rats, 280-300 gm., are used. The animals are placed in individual cages and fasted for 24 hours with free access to water. Under ether anesthesia, the stomach is reached through a midline incision, and a cotton-thread ligature is placed around the pylorus. After wound closure, ether administration is stopped and either BL-5641, cimetidine or vehicle are administered intraperitoneally in a volume of […]. BL-5641 and cimetidine are solubilized with one equivalent of HCl and brought to the proper volume with water. The animals are returned to their cages from which the water bottles have been removed and two hours later are sacrificed with ether. The stomach is removed and the two hour gastric collection is drained into a graduated test tube for volume determination. Titratable acidity is measured by titrating a one ml. sample to pH 7.0 with 0.02 N NaOH, using an Autoburet and an electrometric pH meter (Radiometer). Titratable acid output is calculated in microequivalents by multiplying the volume in milliliters by the acid concentration in milliequivalents per liter. The percent inhibition of acid output is calculated as follows [formula]

[2] = clinical, in words; cited from earlier work
[3] = tested on: histamine-induced gastric acid output; test: Gastric antisecretory activity in the gastric fistula dog (histamine-induced gastric acid output); assay type: in vivo, dog (beagle)
Protocol: Determination of Gastric Antisecretory Activity in the Gastric Fistula Dog
Thomas type [Thomas, J. E., Proc. Soc. exp. Biol. Med., 46, 260 (1941)] stainless steel cannulae are inserted into the stomachs of beagle dogs (10-12 kg.) just orad to the pyloric gland area near the greater curvature to provide a chronic gastric fistula. Animals are allowed to recover for at least two months before any testing is done. Dogs are fasted overnight (~18 hours) with water ad lib prior to each experiment. The dogs are placed in a sling and an eight inch inside needle catheter (C. R. Baird, Inc.) with a two inch 17 gauge needle is inserted into a leg vein for purposes of drug administration. Gastric secretions are collected every 15 minutes by gravity drainage from the opened cannula. […] A modification of the procedure described by Grossman and Konturek, Gastroenterology, 66, 517 (1974) was followed. […] Each 15 minute sample of gastric juice is measured to the nearest 0.5 ml. and titratable acidity against 0.02 N NaOH (endpoint pH 7.0) is measured with an Autoburet and pH meter (radiometer). The percent inhibition of acid output is calculated as described in the pylorus ligated rat procedure.

[4] = 10 μMole/kg. ip, 2 h (BL-5641 2.76 mg/kg; cimetidine 2.5 mg/kg)
[5] = 20 μMole/kg. ip, 2 h (BL-5641 5.53 mg/kg; cimetidine 5 mg/kg)
[6] = 40 μMole/kg. ip, 2 h (BL-5641 11.1 mg/kg; cimetidine 10 mg/kg)
[7] = 0.75 μM/kg. iv, 15 min, dog 23553, N=1
[8] = 0.75 μM/kg. iv, 30 min, dog 23553, N=1
[9] = 0.75 μM/kg. iv, 45 min, dog 23553, N=1
[10] = 0.75 μM/kg. iv, 60 min, dog 23553, N=1
[11] = 0.75 μM/kg. iv, 75 min, dog 23553, N=1
[12] = 0.75 μM/kg. iv, 90 min, dog 23553, N=1
[13] = 0.75 μM/kg. iv, 105 min, dog 23553, N=1
[14] = 0.75 μM/kg. iv, 120 min, dog 23553, N=1
[15] = 1.5 μM/kg. iv, 15 min, dog 24895, N=1
[16] = 1.5 μM/kg. iv, 30 min, dog 24895, N=1
[17] = 1.5 μM/kg. iv, 45 min, dog 24895, N=1
[18] = 1.5 μM/kg. iv, 60 min, dog 24895, N=1
[19] = 1.5 μM/kg. iv, 75 min, dog 24895, N=1
[20] = 1.5 μM/kg. iv, 90 min, dog 24895, N=1
[21] = 1.5 μM/kg. iv, 105 min, dog 24895, N=1
[22] = 1.5 μM/kg. iv, 120 min, dog 24895, N=1
[23] = 3 μM/kg. iv, 15 min, dog 23606, N=1
[24] = 3 μM/kg. iv, 30 min, dog 23606, N=1
[25] = 3 μM/kg. iv, 45 min, dog 23606, N=1
[26] = 3 μM/kg. iv, 60 min, dog 23606, N=1
[27] = 3 μM/kg. iv, 75 min, dog 23606, N=1
[28] = 3 μM/kg. iv, 90 min, dog 23606, N=1
[29] = 3 μM/kg. iv, 105 min, dog 23606, N=1
[30] = 3 μM/kg. iv, 120 min, dog 23606, N=1
[31] = 6 μM/kg. iv, 15 min, dog 22619, N=1
[32] = 6 μM/kg. iv, 30 min, dog 22619, N=1
[33] = 6 μM/kg. iv, 45 min, dog 22619, N=1
[34] = 6 μM/kg. iv, 60 min, dog 22619, N=1
[35] = 6 μM/kg. iv, 75 min, dog 22619, N=1
[36] = 6 μM/kg. iv, 90 min, dog 22619, N=1
[37] = 6 μM/kg. iv, 105 min, dog 22619, N=1
[38] = 6 μM/kg. iv, 120 min, dog 22619, N=1
[39] = 12 μM/kg. iv, 15 min, dog 24136, N=1
[40] = 12 μM/kg. iv, 30 min, dog 24136, N=1
[41] = 12 μM/kg. iv, 45 min, dog 24136, N=1
[42] = 12 μM/kg. iv, 60 min, dog 24136, N=1
[43] = 12 μM/kg. iv, 75 min, dog 24136, N=1
[44] = 12 μM/kg. iv, 90 min, dog 24136, N=1
[45] = 12 μM/kg. iv, 105 min, dog 24136, N=1
[46] = 12 μM/kg. iv, 120 min, dog 24136, N=1

T1 sequence (P47747 whole entry): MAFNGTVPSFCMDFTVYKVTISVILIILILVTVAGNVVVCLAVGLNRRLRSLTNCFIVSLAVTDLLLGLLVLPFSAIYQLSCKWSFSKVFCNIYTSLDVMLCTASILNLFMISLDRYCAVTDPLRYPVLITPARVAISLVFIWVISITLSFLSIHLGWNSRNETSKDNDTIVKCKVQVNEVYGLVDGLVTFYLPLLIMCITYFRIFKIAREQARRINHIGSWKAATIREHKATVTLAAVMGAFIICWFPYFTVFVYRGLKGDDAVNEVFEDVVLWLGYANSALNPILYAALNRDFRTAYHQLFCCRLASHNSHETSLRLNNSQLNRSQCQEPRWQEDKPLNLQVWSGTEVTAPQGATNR

SMILES: CNC(=NC#N)NCCSCc1[nH]cnc1C [Cimetidine]
half-life [1]: relatively short
Activity Ratio (histamine H2-receptors): 1.0
Histamine ED50 With 95% Confidence Limits (histamine H2-receptors): 1.39 µg/mL
Concentration-Response Curve Displacement Factor (histamine H2-receptors): 6.6
therapeutic effect in peptic ulcer disease (peptic ulcer disease): effective therapeutic agent in the treatment of peptic ulcer disease
H2 antagonist potency/effectiveness (H2 receptors): as effective an H2 antagonist as metiamide
% Inhibition of Acid Output (gastric acid output; 5 μMole/kg. ip, 2 h (cimetidine 1.25 mg/kg)): 34%
% Inhibition of Acid Output (gastric acid output; [4]): 40%
% Inhibition of Acid Output (gastric acid output; [5]): 60%
% Inhibition of Acid Output (gastric acid output; [6]): 66%
ED50 (gastric acid output; Rattus norvegicus, ip, 2 h, read-out: ED50 (inhibition of acid output)): ~14 µmol/kg
toxicity (agranulocytosis) [2]: without producing agranulocytosis
% Inhibition Acid Output [3, 7]: 50%
% Inhibition Acid Output [3, 8]: 10%
% Inhibition Acid Output [3, 9]: 24%
% Inhibition Acid Output [3, 10]: 17%
% Inhibition Acid Output [3, 11]: 35%
% Inhibition Acid Output [3, 12]: 27%
% Inhibition Acid Output [3, 13]: 25%
% Inhibition Acid Output [3, 14]: 19%
% Inhibition Acid Output [3, 15]: 73%
% Inhibition Acid Output [3, 16]: 57%
% Inhibition Acid Output [3, 17]: 60%
% Inhibition Acid Output [3, 18]: 29%
% Inhibition Acid Output [3, 19]: 0%
% Inhibition Acid Output [3, 20]: 18%
% Inhibition Acid Output [3, 21]: 0%
% Inhibition Acid Output [3, 22]: 0%
% Inhibition Acid Output [3, 23]: 43%
% Inhibition Acid Output [3, 24]: 27%
% Inhibition Acid Output [3, 25]: 15%
% Inhibition Acid Output [3, 26]: 0%
% Inhibition Acid Output [3, 27]: 17%
% Inhibition Acid Output [3, 28]: 38%
% Inhibition Acid Output [3, 29]: 8%
% Inhibition Acid Output [3, 30]: 0%
% Inhibition Acid Output [3, 31]: 84%
% Inhibition Acid Output [3, 32]: 96%
% Inhibition Acid Output [3, 33]: 73%
% Inhibition Acid Output [3, 34]: 67%
% Inhibition Acid Output [3, 35]: 65%
% Inhibition Acid Output [3, 36]: 54%
% Inhibition Acid Output [3, 37]: 40%
% Inhibition Acid Output [3, 38]: 32%
% Inhibition Acid Output [3, 39]: 63%
% Inhibition Acid Output [3, 40]: 99%
% Inhibition Acid Output [3, 41]: 89%
% Inhibition Acid Output [3, 42]: 76%
% Inhibition Acid Output [3, 43]: 54%
% Inhibition Acid Output [3, 44]: 48%
% Inhibition Acid Output [3, 45]: 41%
% Inhibition Acid Output [3, 46]: 14%
onset of effect on gastric acid output ([3]; iv, in words): immediate inhibitory effect on gastric acid output

Histamine ED50 With 95% Confidence Limits (histamine H2-receptors): 12.44 µg/mL
histamine H2-receptor antagonist potency vs cimetidine (histamine H2-receptors; isolated guinea pig atria, in words): more potent than cimetidine
Concentration-Response Curve Displacement Factor (histamine H2-receptors): 32.7
SMILES: C#CCN=C(NC#N)NCCSCc1[nH]cnc1C [BL-5641, N-Cyano-N'-{2-[(4-methyl-5-imidazolyl)methylthio]ethyl}-N"-propargylguanidine]
% Inhibition of Acid Output (gastric acid output; [4]): 37%
% Inhibition of Acid Output (gastric acid output; [5]): 61%
% Inhibition of Acid Output (gastric acid output; [6]): 80%
ED50 (gastric acid output; Rattus norvegicus, ip, 2 h; read-out: ED50 (inhibition of acid output)): ~11 µmol/kg
potency in inhibition of gastric acid output vs cimetidine (gastric acid output; in words): at least as potent as cimetidine; also recorded: more potent than cimetidine
% Inhibition Acid Output [3, 7]: 51%
% Inhibition Acid Output [3, 8]: 38%
% Inhibition Acid Output [3, 9]: 28%
% Inhibition Acid Output [3, 10]: 28%
% Inhibition Acid Output [3, 11]: 31%
% Inhibition Acid Output [3, 12]: 43%
% Inhibition Acid Output [3, 13]: 42%
% Inhibition Acid Output [3, 14]: 46%
% Inhibition Acid Output [3, 15]: 82%
% Inhibition Acid Output [3, 16]: 72%
% Inhibition Acid Output [3, 17]: 53%
% Inhibition Acid Output [3, 18]: 49%
% Inhibition Acid Output [3, 19]: 33%
% Inhibition Acid Output [3, 20]: 7%
% Inhibition Acid Output [3, 21]: 0%
% Inhibition Acid Output [3, 22]: 0%
% Inhibition Acid Output [3, 23]: 60%
% Inhibition Acid Output [3, 24]: 59%
% Inhibition Acid Output [3, 25]: 36%
% Inhibition Acid Output [3, 26]: 34%
% Inhibition Acid Output [3, 27]: 32%
% Inhibition Acid Output [3, 28]: 42%
% Inhibition Acid Output [3, 29]: 24%
% Inhibition Acid Output [3, 30]: 0%
% Inhibition Acid Output [3, 31]: 82%
% Inhibition Acid Output [3, 32]: 99%
% Inhibition Acid Output [3, 33]: 99%
% Inhibition Acid Output [3, 34]: 95%
% Inhibition Acid Output [3, 35]: 78%
% Inhibition Acid Output [3, 36]: 76%
% Inhibition Acid Output [3, 37]: 52%
% Inhibition Acid Output [3, 38]: 53%
% Inhibition Acid Output [3, 39]: 66%
% Inhibition Acid Output [3, 40]: 99%
% Inhibition Acid Output [3, 41]: 99%
% Inhibition Acid Output [3, 42]: 99%
% Inhibition Acid Output [3, 43]: 99%
% Inhibition Acid Output [3, 44]: 93%
% Inhibition Acid Output [3, 45]: 91%
% Inhibition Acid Output [3, 46]: 73%
duration of activity vs cimetidine ([3]; equal (equimolar) doses iv, in words): of longer duration with BL-5641 than with cimetidine; also recorded: longer duration of activity than cimetidine at equal doses
degree of inhibition of gastric acid output vs cimetidine ([3]; equimolar doses iv, in words): consistently greater
inhibitor of gastric acid output, potency vs cimetidine ([3]; iv, in words): more potent and/or longer acting than cimetidine; also recorded: more potent than cimetidine
onset of effect on gastric acid output ([3]; iv, in words): immediate inhibitory effect on gastric acid output

Reference: patent US4157347A, “N-cyano isothioureas” (Bristol-Myers Company, priority 1978, dated 1979)
